Test results: patent US3960845A, “Process for preparing 7β-acylamino-7α-alkoxycephalosporins or 6β-acylamino-6α-alkoxypenicillins” (Sankyo Company Limited, priority 1974, dated 1976)
In brackets after ≈: the same amount, converted by molar mass. Like-named read-outs stand apart in the source and are kept apart here.

Assays:
Format in all cases: cell-based
[1] = test system: Shigella flexneri Komagome; assay: Minimal inhibitory concentration; conditions: III: Shigella flexneri Komagome; read-out: Minimal inhibitory concentration
Text: (§1) Minimal inhibitory concentrations of various microorganisms mcg/ml
III Shigella flexneri Komagome

[2] = test system: Klebsiella neumoniae 846 (CER resistant); assay: Minimal inhibitory concentration; conditions: IV B: Klebsiella neumoniae 846 (CER resistant)
Text: as §1
IV B Klebsiella neumoniae 846 (CER resistant)

[3] = test system: Staphylococcus aureus (CP and PC resistant); assay: Minimal inhibitory concentration; conditions: I B: Staphylococcus aureus (CP and PC resistant)
Text: as §1
1 B Staphylococcus aureus

[4] = test system: broad pathogenic microorganisms; assay: antimicrobial activity; conditions: result in words
[5] = test system: Klebsiella neumoniae 806; assay: Minimal inhibitory concentration
Text: as §1
IV A Klebsiella neumoniae 806

[6] = test system: Salmonella enteritidis Gaertner; assay: Minimal inhibitory concentration; conditions: Salmonella enterica, read-out: Minimal inhibitory concentration
Text: as §1
VI Salmonella enteritidis Gaertner

[7] = test system: Staphylococcus aureus 209p; assay: Minimal inhibitory concentration; conditions: read-out: Minimal inhibitory concentration
Text: as §1
1 A Staphylococcus aureus 209p

[8] = test system: E. coli 609 (CER resistant); assay: Minimal inhibitory concentration; conditions: Escherichia coli; II B: E. coli 609 (CER resistant); read-out: Minimal inhibitory concentration
Text: as §1
II B E. coli 609 (CER resistant)

[9] = test system: E. coli NIHJ; assay: Minimal inhibitory concentration; conditions: Escherichia coli; II A: E. coli NIHJ
Text: as §1

[10] = test system: Proteus vulgaris; assay: Minimal inhibitory concentration; conditions: read-out: Minimal inhibitory concentration
Text: as §1

[11] = IV A: Klebsiella neumoniae 806, read-out: Minimal inhibitory concentration
[12] = VI: Salmonella enteritidis Gaertner
[13] = I A: Staphylococcus aureus 209p

Structure (SMILES): CO[C@@]1(NC(=O)COc2ccon2)C(=O)N2C(C(=O)O)=C(COC(C)=O)CS[C@@H]21 [7β-(3-isoxazolyloxy)acetamido-7α-methoxy-3-acetoxymethyl-3-cephem-4-carboxylic acid]
- MIC [1]: 12.5 µg/mL (≈ 29.2 µM)
- MIC [2]: > 400 µg/mL
- MIC [3]: 0.8 µg/mL (≈ 1.87 µM)
- antimicrobial activity against broad pathogenic microorganisms [4]: excellent antimicrobial activity
- MIC [5, 11]: 6.2 µg/mL (≈ 14.5 µM)
- MIC [6, 12]: 3.1 µg/mL (≈ 7.25 µM)
- MIC [7, 13]: ≤ 0.1 µg/mL
- MIC [8]: 6.2 µg/mL (≈ 14.5 µM)
- MIC [9]: 6.2 µg/mL (≈ 14.5 µM)
- MIC ([10]; Proteus vulgaris): 12.5 µg/mL (≈ 29.2 µM)

Structure (SMILES): CO[C@@]1(NC(=O)CSc2nnc(C)s2)C(=O)N2C(C(=O)O)=C(CSc3nnnn3C)CS[C@@H]21 [7β-(5-methyl-1,3,4-thiadiazol-2-yl)thioacetamido-7α-methoxy-3-(1-methyl-1H-tetrazol-5-yl)thiomethyl-3-cephem-4-carboxylic acid]
- MIC [1]: 6.2 µg/mL (≈ 11.7 µM)
- MIC [2]: 400 µg/mL (≈ 754 µM)
- MIC [3]: 1.5 µg/mL (≈ 2.83 µM)
- antimicrobial activity against broad pathogenic microorganisms [4]: excellent antimicrobial activity
- MIC [5, 11]: 12.5 µg/mL (≈ 23.6 µM)
- MIC [6, 12]: 1.5 µg/mL (≈ 2.83 µM)
- MIC [7, 13]: 0.4 µg/mL (≈ 0.754 µM)
- MIC [8]: 12.5 µg/mL (≈ 23.6 µM)
- MIC [9]: 12.5 µg/mL (≈ 23.6 µM)
- MIC ([10]; V: Proteus vulgaris): 3.1 µg/mL (≈ 5.84 µM)

Structure (SMILES): CO[C@@]1(NC(=O)CSc2nnc(C)s2)C(=O)N2C(C(=O)O)=C(COC(N)=O)CS[C@@H]21 [7β-(5-methyl-1,3,4-thiadiazol-2-yl)thioacetamido-7α-methoxy-3-carbamoyloxymethyl-3-cephem-4-carboxylic acid]
- MIC [1]: 12.5 µg/mL (≈ 26.3 µM)
- MIC [2]: > 200 µg/mL
- MIC [3]: 3.1 µg/mL (≈ 6.52 µM)
- antimicrobial activity against broad pathogenic microorganisms [4]: excellent antimicrobial activity
- MIC [5, 11]: 6.2 µg/mL (≈ 13 µM)
- MIC [6, 12]: 3.1 µg/mL (≈ 6.52 µM)
- MIC [7, 13]: 0.8 µg/mL (≈ 1.68 µM)
- MIC [8]: 6.2 µg/mL (≈ 13 µM)
- MIC [9]: 6.2 µg/mL (≈ 13 µM)
- MIC ([10]; V: Proteus vulgaris): 6.2 µg/mL (≈ 13 µM)

Structure (SMILES): CO[C@@]1(NC(=O)CSc2ncc[nH]2)C(=O)N2C(C(=O)O)=C(CSc3nnnn3C)CS[C@@H]21 [7β-(imidazol-2-yl)thioacetamido-7α-methoxy-3-(1-methyl-1H-tetrazol-5-yl)thiomethyl-3-cephem-4-carboxylic acid]
- MIC [1]: 6.2 µg/mL (≈ 12.4 µM)
- MIC [2]: > 200 µg/mL
- MIC [3]: 3.1 µg/mL (≈ 6.22 µM)
- antimicrobial activity against broad pathogenic microorganisms [4]: excellent antimicrobial activity
- MIC [5, 11]: 6.2 µg/mL (≈ 12.4 µM)
- MIC [6, 12]: 3.1 µg/mL (≈ 6.22 µM)
- MIC [7, 13]: 0.8 µg/mL (≈ 1.6 µM)
- MIC [8]: 6.2 µg/mL (≈ 12.4 µM)
- MIC [9]: 6.2 µg/mL (≈ 12.4 µM)
- MIC ([10]; V: Proteus vulgaris): 12.5 µg/mL (≈ 25.1 µM)

Structure (SMILES): CO[C@@]1(NC(=O)CSc2ncc[nH]2)C(=O)N2C(C(=O)O)=C(COC(C)=O)CS[C@@H]21 [7β-(imidazol-2-yl)thioacetamido-7α-methoxy-3-acetoxymethyl-3-cephem-4-carboxylic acid]
- MIC [1]: 25 µg/mL (≈ 56.5 µM)
- MIC [2]: > 400 µg/mL
- MIC [3]: 6.2 µg/mL (≈ 14 µM)
- antimicrobial activity against broad pathogenic microorganisms [4]: excellent antimicrobial activity
- MIC [5, 11]: 12.5 µg/mL (≈ 28.3 µM)
- MIC [6, 12]: 6.2 µg/mL (≈ 14 µM)
- MIC [7, 13]: 1.5 µg/mL (≈ 3.39 µM)
- MIC [8]: 25 µg/mL (≈ 56.5 µM)
- MIC [9]: 12.5 µg/mL (≈ 28.3 µM)
- MIC ([10]; V: Proteus vulgaris): 25 µg/mL (≈ 56.5 µM)

Structure (SMILES): CO[C@@]1(NC(=O)CSc2ncc[nH]2)C(=O)N2C(C(=O)O)=C(COC(N)=O)CS[C@@H]21 [7β-(imidazol-2-yl)thioacetamido-7α-methoxy-3-carbamoyloxymethyl-3-cephem-4-carboxylic acid]
- MIC [1]: 3.1 µg/mL (≈ 6.99 µM)
- MIC [2]: > 200 µg/mL
- MIC [3]: 0.8 µg/mL (≈ 1.8 µM)
- antimicrobial activity against broad pathogenic microorganisms [4]: excellent antimicrobial activity
- MIC [5, 11]: 3.1 µg/mL (≈ 6.99 µM)
- MIC [6, 12]: 1.5 µg/mL (≈ 3.38 µM)
- MIC [7, 13]: ≤ 0.1 µg/mL
- MIC [8]: 3.1 µg/mL (≈ 6.99 µM)
- MIC [9]: 1.5 µg/mL (≈ 3.38 µM)
- MIC ([10]; V: Proteus vulgaris): 6.2 µg/mL (≈ 14 µM)

Structure (SMILES): CO[C@@]1(NC(=O)CSCC#N)C(=O)N2C(C(=O)O)=C(CSc3nnnn3C)CS[C@@H]21 [7β-cyanomethylthioacetamido-7α-methoxy-3-(1-methyl-1H-tetrazol-5-yl)thiomethyl-3-cephem-4-carboxylic acid]
- MIC [1]: 0.8 µg/mL (≈ 1.7 µM)
- MIC [2]: > 200 µg/mL
- MIC [3]: 0.8 µg/mL (≈ 1.7 µM)
- antimicrobial activity against broad pathogenic microorganisms [4]: excellent antimicrobial activity
- MIC ([5]; Klebsiella, 806, read-out: Minimal inhibitory concentration): 0.8 µg/mL (≈ 1.7 µM)
- MIC ([6]; ENTERITIDIS): 0.2 µg/mL (≈ 0.424 µM)
- MIC ([7]; Staphylococcus aureus, 209P): 0.2 µg/mL (≈ 0.424 µM)
- MIC [8]: 0.8 µg/mL (≈ 1.7 µM)
- MIC ([10]; Proteus vulgaris): 1.5 µg/mL (≈ 3.18 µM)
